From patent publication US7053107B2, “Indazole compounds and pharmaceutical compositions for inhibiting protein kinases, and methods for their use” (Agouron Pharmaceuticals, Inc., priority 2002, dated 2006) come the findings set out here.

Data set [1] has as its target T1, unphosphorylated VEGF-R2Δ50 (Homo sapiens, UniProt P35968, DEL940-989/E990V).
T1 construct: VEGF-R2Δ50 contains residues 806–939 and 990–1171; made in house; host or cells: baculovirus/insect cell system
Description: VEGF-R2 coupled spectrophotometric assay, unphosphorylated construct (FLVK). It is filed as biochemical. The conditions noted are these: for inhibition at 0.05 µM: % inhibition at 50 nM compound, read-out: FLVK Ki % inh @ 50 nM. The text has this: This construct determines the ability of a test compound to inhibit tyrosine kinase activity. A construct (VEGF-R2Δ50) of the cytosolic domain of human vascular endothelial growth factor receptor 2 (VEGF-R2) lacking the 50 central residues of the 68 residues of the kinase insert domain was expressed in a baculovirus/insect cell system. Of the 1356 residues of full-length VEGF-R2, VEGF-R2Δ50 contains residues 806–939 and 990–1171, and also one point mutation (E99OV) within the kinase insert domain relative to wild-type VEGF-R2. Autophosphorylation of the purified construct was performed by incubation of the enzyme at a concentration of 4 μM in the presence of 3 mM ATP and 40 mM MgCl2 in 100 mM HEPES, pH 7.5, containing 5% glycerol and 5 mM DTT, at 4° C. for 2 h. […] See Parast et al., Biochemistry, 37,16788–16801 (1998).
(§1) The production of ADP from ATP that accompanies phosphoryl transfer was coupled to oxidation of NADH using phosphoenolpyruvate (PEP) and a system having pyruvate kinase (PK) and lactic dehydrogenase (LDH). The oxidation of NADH was monitored by following the decrease of absorbance at 340 nm (e340=6.22 cm^−1 mM^−1) using a Beckman DU 650 spectrophotometer. Assay conditions for phosphorylated VEGF-R2A50 (indicated as FLVK-P in the tables below) were the following: 1 mM PEP; 250 μM NADH; 50 units of LDH/mL; 20 units of PK/mL; 5 mM DTT; 5.1 mM poly(E4Y1); 1 mM ATP; and 25 mM MgCl2 in 200 mM HEPES, pH 7.5. Assay conditions for unphosphorylated VEGF-R2Δ50 (indicated as FLVK in the tables) were the following: 1 mM PEP; 250 μM NADH; 50 units of LDH/mL; 20 units of PK/mL; 5 mM DTT; […]; 3 mM ATP; and 60 mM MgCl2 and 2 mM MnCl2 in 200 mM HEPES, pH 7.5. Assays were initiated with 5 to 40 nM of enzyme. Ki values were determined by measuring enzyme activity in the presence of varying concentrations of test compounds. The data were analyzed using Enzyme Kinetic and Kaleidagraph software.

The next data set deals with T2, FGF-R1 (Homo sapiens, UniProt P11362, C488A/C584S/L457V).
T2 construct: starting from the endogenous methionine residue 456 to glutamate 766; made in house; host or cells: baculovirus vector expression system
T2 sequence (P11362 456-766 L457V/C488A/C584S): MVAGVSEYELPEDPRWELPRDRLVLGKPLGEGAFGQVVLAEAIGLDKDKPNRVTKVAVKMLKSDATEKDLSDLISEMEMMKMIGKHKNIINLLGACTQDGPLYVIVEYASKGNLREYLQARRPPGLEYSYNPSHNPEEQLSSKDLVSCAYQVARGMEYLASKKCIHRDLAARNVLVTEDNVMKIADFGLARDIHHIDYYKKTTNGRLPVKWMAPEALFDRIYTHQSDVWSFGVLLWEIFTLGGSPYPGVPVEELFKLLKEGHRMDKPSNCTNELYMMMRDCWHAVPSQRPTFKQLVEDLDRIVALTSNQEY
Description: Fibroblast Growth Factor (FGF-R) spectrophotometric assay. Type of data set: biochemical. The conditions noted are these: 1 μM compound; read-out: FGF-P % inhibit @1 μM.
Source text: The intracellular kinase domain of human FGF-R1 was expressed using the baculovirus vector expression system starting from the endogenous methionine residue 456 to glutamate 766, according to the residue numbering system of Mohammadi et al., Mol. Cell. Biol., 16, 977–989 (1996). In addition, the construct also has the following 3 amino acid substitutions: L457V, C488A, and C584S.
as §1
The spectrophotometric assay was carried out as described above for VEGF-R2, except for the following changes in concentration: FGF-R=50 nM, ATP=2 mM, and poly(E4Y1)=15 mM.

The next data set concerns HUVEC. Put plainly: bFGF Huvec. Type of data set: cell-based. The conditions noted are these: Homo sapiens.
Data set [2] has as its system human umbilical vein endothelial cells (HUVEC). Put plainly: HUVEC Proliferation Assay (VEGF-stimulated). It is filed as cell-based. The method, then:
This assay determines the ability of a test compound to inhibit the growth factor-stimulated proliferation of human umbilical vein endothelial cells (“HUVEC”). HUVEC cells (passage 3–4, Clonetics, Corp.) were thawed into EGM2 culture medium (Clonetics Corp) in T75 flasks. Fresh EGM2 medium was added to the flasks 24 hours later. Four or five days later, cells were exposed to another culture medium (F12K medium supplemented with 10% fetal bovine serum (FBS), 60 μg/mL endothelial cell growth supplement (ECGS), and 0.1 mg/mL heparin). Exponentially-growing HUVEC cells were used in experiments thereafter. Ten to twelve thousand HUVEC cells were plated in 96-well dishes in 100 μl of rich, culture medium (described above). The cells were allowed to attach for 24 hours in this medium. The medium was then removed by aspiration and 105 μl of starvation media (F12K+1% FBS) was added to each well. After 24 hours, 15 μl of test agent dissolved in 1% DMSO in starvation medium or this vehicle alone was added into each treatment well; the final DMSO concentration was 0.1%. One hour later, 30 μl of VEGF (30 ng/mL) in starvation media was added to all wells except those containing untreated controls; the final VEGF concentration was 6 ng/mL. Cellular proliferation was quantified 72 hours later by MTT dye reduction, at which time cells were exposed for 4 hours MTT (Promega Corp.). Dye reduction was stopped by addition of a stop solution (Promega Corp.) and absorbance at 595λ was determined on a 96-well spectrophotometer plate reader.
IC50 values were calculated by curve-fitting the response of A^595 to various concentrations of the test agent; typically, seven concentrations separated by 0.5 log were employed, with triplicate wells at each concentration. For screening compound library plates, one or two concentrations (one well per concentration) were employed, and the % inhibition was calculated by the following formula: % inhibition=(control−test)[…](control−starvation) where
control=A^595 when VEGF is present without test agent
test=A^595 when VEGF is present with test agent
starvation=A^595 when VEGF and test agent are both absent.

The nature of data set [3]: Human Liver Microsome (HLM) Assay. It is filed as in vitro ADME. On the procedure: Compound metabolism in human liver microsomes was measured by LC-MS analytical assay procedures as follows. First, human liver microsomes (HLM) were thawed and diluted to 5 mg/mL with cold 100 mM potassium phosphate (KPO4) buffer. Appropriate amounts of KPO4 buffer, NADPH-regenerating solution (containing B-NADP, glucose-6-phosphate, glucose-6-phosphate dehydrogenase, and MgCl2), and HLM were preincubated in 13×100 mm glass tubes at 37 C. for 10 min. (3 tubes per test compound—triplicate). Test compound (5 µM final) was added to each tube to initiate reaction and was mixed by gentle vortexing, followed by incubation at 37° C. […] Samples were centrifuged at 4000 rpm for 20 min. to precipitate proteins and salt (Beckman Allegra 6KR, S/N ALK98DO6, #634). Supernatant was transferred to new 12×75 mm glass tubes and evaporated by Speed-Vac centrifugal vacuum evaporator. Samples were reconstituted in 200 μL 0.1% formic acid/acetonitrile (90/10) and vortexed vigorously to dissolve. The samples were then transferred to separate polypropylene microcentrifuge tubes and centrifuged at 14000×g for 10 min. (Fisher Micro 14, S/N M0017580). […]
The combined compound samples were injected into the LC-MS system, composed of a Hewlett-Packard HP 1100 diode array HPLC and a Micromass Quattro II triple quadruple mass spectrometer operating in positive electrospray SIR mode (programmed to scan specifically for the molecular ion of each test compound. Each test compound peak was integrated at each timepoint. […]

The target in another data set is T3, PDGFRβ (Homo sapiens, UniProt P09619).
T3 construct: expressed in transfected cells; host or cells: porcine aorta endothelial (PAE) cells
T3 sequence (P09619 33-1106): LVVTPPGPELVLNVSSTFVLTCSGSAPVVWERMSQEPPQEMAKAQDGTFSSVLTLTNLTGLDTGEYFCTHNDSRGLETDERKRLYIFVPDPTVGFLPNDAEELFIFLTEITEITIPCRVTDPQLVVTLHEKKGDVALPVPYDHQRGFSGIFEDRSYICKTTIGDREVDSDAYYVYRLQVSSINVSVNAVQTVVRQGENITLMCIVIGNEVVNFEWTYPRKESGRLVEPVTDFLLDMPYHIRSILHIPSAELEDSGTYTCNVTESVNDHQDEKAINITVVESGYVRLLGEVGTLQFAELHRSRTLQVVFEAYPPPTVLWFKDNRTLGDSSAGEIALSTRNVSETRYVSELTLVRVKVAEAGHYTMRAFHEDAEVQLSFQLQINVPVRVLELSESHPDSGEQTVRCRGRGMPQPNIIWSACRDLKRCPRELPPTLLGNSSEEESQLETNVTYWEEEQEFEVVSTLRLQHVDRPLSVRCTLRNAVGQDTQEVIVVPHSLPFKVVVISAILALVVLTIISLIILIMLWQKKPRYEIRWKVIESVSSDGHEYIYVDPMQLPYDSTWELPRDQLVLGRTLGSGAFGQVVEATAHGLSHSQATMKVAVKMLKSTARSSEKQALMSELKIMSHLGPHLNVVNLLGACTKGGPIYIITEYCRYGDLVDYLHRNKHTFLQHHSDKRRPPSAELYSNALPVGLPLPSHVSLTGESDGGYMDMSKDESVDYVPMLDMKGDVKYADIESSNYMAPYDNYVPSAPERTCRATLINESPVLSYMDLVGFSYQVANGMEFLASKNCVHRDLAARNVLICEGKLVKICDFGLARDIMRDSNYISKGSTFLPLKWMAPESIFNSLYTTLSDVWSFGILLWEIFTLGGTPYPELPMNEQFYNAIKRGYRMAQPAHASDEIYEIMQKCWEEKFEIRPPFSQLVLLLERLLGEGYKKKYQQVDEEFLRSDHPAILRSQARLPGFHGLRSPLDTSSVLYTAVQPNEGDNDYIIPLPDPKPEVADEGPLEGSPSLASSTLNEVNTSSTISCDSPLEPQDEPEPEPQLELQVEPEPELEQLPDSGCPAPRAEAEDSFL
Description: PAE-PDGFRβ Phosphorylation in PAE-PDGFRB Cells Assay. Type of data set: cell-based. The conditions noted are these: PAE cells overexpressing human PDGFRβ; read-out: PAE PDGFR autophos IC50. On the procedure:
This assay determines the ability of a test compound to inhibit the autophosphorylation of PDGFRβ in porcine aorta endothelial (PAE)-PDGFRβ cells. PAE cells that overexpress human PDGFRβ were used in this assay. The cells were cultured in Ham's F12 media supplemented with 10% fetal bovine serum (FBS) and 400 ug/ml G418. Twenty thousands cells were seeded in each well of a 96-well plate in 50 μL of growth media and allowed to attach for 6 hours at 37° C. Cells were then exposed to the starvation media (Ham's F12 media supplemented with 0.1% FBS) for 16 hours. After the starvation period was over, 10 μL of test agent in 5% DMSO in starvation media were added to the test wells and 10 μL of the vehicle (5% DMSO in starvation media) were added into the control wells. The final DMSO concentration in each well was 0.5%. Plates were incubated at 37° C. for 1 hour and the cells were then stimulated with 1 μg/mL PDGF-BB (R & D System) in the presence of 2 mM Na3VO4 for 8 minutes. The cells were washed once with 1 mm Na3VO4 in HBSS and lysed by adding 50 μL per well of lysis buffer. One hundred μL of dilution buffer were then added to each well and the diluted cell lysate was transferred to a 96-well goat ant-rabbit coated plate (Pierce), which was pre-coated with Rabbit anti Human PDGFRβ antibody (Santa Cruz). The plates were incubated at room temperature for 2 hours and washed seven times with 1% Tween 20 in PBS. HRP-PY20 (Santa Cruz) was diluted and added to the plate for a 30-minute incubation. Plates were then washed again and TMB peroxidase substrate (Kirkegaard & Perry) was added for a 10-minute incubation. One hundred μL of 0.09 N H2SO4 was added into each well of the 96-well plate to stop the reaction. Phosphorylation status was assessed by spectrophotometer reading at 450 nm. IC50 values were calculated by curve fitting using a four-parameter analysis.

The next data set has as its target T4, LCK (Homo sapiens, UniProt P06239, C224D/P223M).
T4 construct: starting from amino acid residue 223 to the end of the protein at residue 509; made in house; host or cells: insect cells
Description: Lymphocyte-Specific Protein-Tyrosine Kinase (LCK) spectrophotometric assay. It is filed as biochemical. The conditions noted are these: 1 μM compound; read-out: LckP* % inhibit @1 μM.

T4 sequence (P06239 223-509 P223M/C224D): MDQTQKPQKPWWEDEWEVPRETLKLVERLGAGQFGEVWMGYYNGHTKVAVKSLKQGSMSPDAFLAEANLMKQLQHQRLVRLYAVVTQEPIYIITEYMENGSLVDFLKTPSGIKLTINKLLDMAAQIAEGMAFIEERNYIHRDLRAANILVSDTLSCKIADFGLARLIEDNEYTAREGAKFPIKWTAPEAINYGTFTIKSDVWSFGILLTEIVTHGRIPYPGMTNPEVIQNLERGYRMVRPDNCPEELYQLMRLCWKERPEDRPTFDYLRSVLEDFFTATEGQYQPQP
T1 sequence (P35968 with tags, fused parts or gaps DEL940-989/E990V limits assumed): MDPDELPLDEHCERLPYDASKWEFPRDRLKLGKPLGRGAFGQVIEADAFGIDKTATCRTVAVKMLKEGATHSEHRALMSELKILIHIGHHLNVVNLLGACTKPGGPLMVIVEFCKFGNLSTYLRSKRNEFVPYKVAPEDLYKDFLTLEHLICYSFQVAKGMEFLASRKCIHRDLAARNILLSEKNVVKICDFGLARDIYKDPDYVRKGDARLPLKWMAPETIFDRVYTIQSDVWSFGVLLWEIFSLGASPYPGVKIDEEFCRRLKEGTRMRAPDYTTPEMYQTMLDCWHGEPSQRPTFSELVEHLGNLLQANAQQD

As for `Cc1cc(C)nc(/C=C/c2n[nH]c3cc(Nc4ccccc4C(=O)NCC#CC4CC4)ccc23)c1` [Example 18, N-(3-Cycloprop-2-ynyl)-2-{3-[(E)-2-(4,6-dimethyl-pyridin-2-yl)-vinyl]-1H-indazol-6-ylamino}-benzamide], the inhibition at 0.05 µM in data set [1] worked out at 94%. The inhibition at 1 µM on FGF-R1 stood at 59%. Moreover, the IC50 with HUVEC was determined as 1880 nM.
On to `Cc1cc(CNC(=O)c2ccccc2Nc2ccc3c(/C=N/n4cccc4)n[nH]c3c2)n(C)n1` [Example 61, N-(2,5-Dimethyl-2H-pyrazol-3-ylmethyl)-2-[3-(pyrrol-1-yliminomethyl)-1H-indazol-6-ylamino]-benzamide], for which the inhibition at 0.05 µM in data set [1] was found to be 65%. Also, the inhibition at 1 µM at FGF-R1 stood at 14%. Further, the IC50 is 6.5 nM in data set [2] and 662 nM in the data set with HUVEC.
With `Cc1ccnc(/C=C/c2n[nH]c3cc(Nc4ccccc4C(=O)NCc4cc(C)nn4C)ccc23)c1` [Example 41, N-(2,5-Dimethyl-2H-pyrazol-3-ylmethyl)-2-{3-[(E)-2-(4-methyl-pyridin-2-yl)-vinyl]-1H-indazol-6-ylamino}-benzamide], in data set [1], the inhibition at 0.05 µM was determined as 45%. For the same compound, the inhibition at 1 µM at FGF-R1 was determined as 11%. The 50% inhibitory concentration (IC50) in data set [2] stood at 6.4 nM; with HUVEC, 3780 nM.
On to `Cc1cc(CNC(=O)c2ccccc2Nc2ccc3c(/C=C/c4ccccn4)n[nH]c3c2)n(C)n1` [Example 65, N-(2,5-Dimethyl-2H-pyrazol-3-ylmethyl)-2-[3-(2-pyridin-2-yl-vinyl)-1H-indazol-6-ylamino]-benzamide], for which the Ki in data set [1] (cell prints nM instead of % inhibition) came to 3.11 nM. Moreover, the figures for the IC50 (in data set [2]; at PDGFRβ) were 3.4 nM and 5.8 nM, respectively. Besides, in data set [3] (@0.5 h), the “% remaining (HLM)” value is reported as 86@0.5 h %.
On to `O=C(NCc1ccccc1)c1ccccc1Nc1ccc2c(/C=C/c3ccccn3)n[nH]c2c1` [Example 3(g), N-Benzyl-2-[3-((E)-2-pyridin-2-yl-vinyl)-1H-indazol6-ylamino]-benzamide], for which the inhibition at 0.05 µM in data set [1] came out at 95%. For the same compound, the inhibition at 1 µM at LCK came to 28%; on FGF-R1, 72%. The same compound displayed an IC50 in data set [2] of 1.1 nM. In data set [3] (@0.5 h), the “% remaining (HLM)” value is listed as 72@0.5 h %.
For the compound `CONC(=O)c1ccccc1Nc1ccc2c(/C=C/c3ccccn3)n[nH]c2c1` [Example 3(a), N-Methoxy-2-[3-((E)-2-pyridin-2-yl-vinyl)-1H-indazol-6-ylamino]-benzamide], the inhibition at 0.05 µM in data set [1] was found to be 98%. Also, the inhibition at 1 µM was determined as 30% on LCK and 99% at FGF-R1. In data set [2], half-maximal inhibition (IC50) required 12.7 nM.
Consider `C=CCONC(=O)c1ccccc1Nc1ccc2c(/C=C/c3ccccn3)n[nH]c2c1` [Example 3(b), N-Allyloxy-2-[3-((E)-2-pyridin-2-yl-vinyl)-1H-indazol-6-ylamino]-benzamide], for which the inhibition at 0.05 µM in data set [1] was determined as 98%. Besides, the inhibition at 1 µM at LCK worked out at 27%; on FGF-R1, 96%. The same compound yielded an IC50 in data set [2] of 5.7 nM. In addition, in data set [3] (@2 h), the “% remaining (HLM)” value is 84@2 h %.
Take `C=C(C)CNC(=O)c1ccccc1Nc1ccc2c(/C=C/c3cc(C)cc(C)n3)n[nH]c2c1` [Example 15, 2-{3-[2-(4,6-Dimethyl-pyridin-2-yl)-vinyl]-1H-indazol-6-ylamino}-N-(2-methyl-allyl)-benzamide]: the inhibition at 0.05 µM in data set [1] was 64%. Moreover, the inhibition at 1 µM at FGF-R1 came to 29%. Besides, the IC50 in data set [2] came to 1.5 nM; at PDGFRβ, 12.3 nM; in the data set on HUVEC it was 1610 nM.

The term IC50 denotes the concentration at which inhibition is half-maximal. What is called Ki is the equilibrium dissociation constant of an inhibitor or competing ligand from its target. The low end stands for tighter binding, the high end for weaker binding.
